From patent publication US20190075787A1, “COMPOSITIONS AND METHODS FOR CROP DEFENSE” (AdvanSix Resins & Chemicals LLC, priority 2017, published 2019)

Columns and labels:
[1] = general statement, no test described; cited from earlier work
[2] = general statement, no test described; cited from earlier work; remark: listed apart in the source
[3] = Insecticide comparative solubility: bifenthrin dissolved in each solvent; assay type: physicochemical; conditions: room temperature; vials of 20, 30, 40 and 50 wt. % bifenthrin
[4] = Herbicide comparative solubility: saflufenacil dissolved in each solvent; assay type: physicochemical; conditions: room temperature; vials of 20, 30, 40 and 50 wt. % saflufenacil
Protocol: (§1) The solubility of the herbicide saflufenacil was determined for thirteen solvents. Three of the solvents were caprolactam-derived solvents in accordance with this disclosure. The remaining ten were comparative solvents. The solubility of saflufenacil was evaluated for each solvent by preparing four, 2 ml vials containing 20 wt. %, 30 wt. %, 40 wt. % and 50 wt. % of saflufenacil. To prepare the 20 wt. % vial, 0.040 g of saflufenacil was added to 0.160 ml of solvent. To prepare the 30 wt. % vial, 0.060 g of saflufenacil was added to 0.140 ml of solvent. To prepare the 40 wt. % vial, […] of saflufenacil was added to 0.120 ml of solvent. To prepare the 50 wt. % vial, 0.100 g of saflufenacil was added to 0.100 ml of solvent. The vials were capped and swirled at room temperature until no change in solubility was observed. […] Solvents 1-3 are in accordance with the present disclosure. Solvents 4-13 are comparative solvents.

[5] = Fungicide comparative solubility: tebuconazole dissolved in each solvent; assay type: physicochemical; conditions: room temperature; vials of 20, 30, 40 and 50 wt. % tebuconazole
Protocol: as §1, with “observed. Test samples including the fungicide tebuconazole were prepared as described above for Example 1 for saflufenacil.” for “observed.”, “As in Table 1 above, solvents” for “Solvents”, “disclosure and solvents” for “disclosure. Solvents”

[6] = Hansen Solubility Parameters of solvents; assay type: physicochemical
From the text: As is known in the art, Hansen Solubility Parameters can be used to predict the effectiveness of a solvent. […] Thus, one skilled in the art would not expect the caprolactam-derived solvents to be as effective as NMP and other commonly used solvents.

Structure (SMILES) | maximum weight percentage of bifenthrin dissolved in each solvent [3] | maximum weight percentage of saflufenacil dissolved in each solvent [4] | maximum weight percentage of tebuconazole dissolved in each solvent [5] | also measured
CN1CCCCCC1=O [Solvent 1, N-methylcaprolactam] | – | – | – | reproductive toxin [1]: not considered to be either a reproductive toxin or a carcinogen; carcinogen [2]: not considered to be either a reproductive toxin or a carcinogen
CN1CCCCCC1=O [Solvent 1] | 40% | 40% | 50% | –
CCN1CCCCCC1=O [Solvent 2] | 50% | 30% | 50% | –
CCCCN1CCCCCC1=O [Solvent 3] | 40% | 20% | 40% | –
CN1CCCC1=O [Solvent 4, N-methyl-2-pyrrolidone] | – | – | – | reproductive toxin [1]: has been found to be a reproductive toxin
CN1CCCC1=O [Solvent 4] | 50% | 50% | 50% | –
CCCCN1CCCC1=O [Solvent 5] | 50% | 30% | 40% | –
CCCCCCCCCC(=O)N(C)C [Solvent 6] | 30% | 30% | 30% | –
COC(=O)CCCCC(=O)N(C)C [Solvent 7, N,N-dimethyladipamide methyl ester] | – | – | – | Hansen Solubility Parameters: Dispersion [6]: 17.2; Hansen Solubility Parameters: Hydrogen Bonding [6]: 9.3; Hansen Solubility Parameters: Polarity [6]: 9.7
O=C1CCCCC1 [Solvent 9] | 50% | <20% | 40% | –
N#CCCN1CCCCCC1=O [Solvent 13] | <20% | <20% | <20% | –
O=C1CCCCCN1 [caprolactam] | – | – | – | reproductive toxin [1]: has not been found to be, and is not expected to be, either a reproductive toxin or a carcinogen; carcinogen [2]: has not been found to be, and is not expected to be, either a reproductive toxin or a carcinogen
CC1=CC(=O)CC(C)(C)C1 [isophorone] | – | – | – | carcinogen [2]: suspected carcinogen
